The assay concerns the target Toll-like receptor 7 (Homo sapiens (Human), UniProt Q9NYK1). Briefly: Toll-like receptor 7 in vitro receptor binding activity screen (HEK-blue hTLR7 cell, alkaline phosphatase/Quanti-Blue readout). Type of assay: cell-based. The conditions noted are these: HEK-blue hTLR7 cell, 24 h; read-out: TLR7 EC50. On the procedure:
Toll-Like Receptor 7 and Toll-Like Receptor 8 In Vitro Receptor Binding Activity Screen
HEK-blue hTLR7 cell and HEK-blue hTLR8 cell (available from InvivoGen)
1. Preparation of 96-well compound plate:
The compounds were gradient diluted with DMSO in 3-fold using liquid work station POD starting at a concentration of 10 mmol/L and 10 points were diluted (2nd column to 11th column, and each point was duplicated). At 12th column, 1 μL of 5 mg/mL positive compound R848 was added as positive control; and at 1st column, 1 μL of DMSO was added as negative control. Each well contained 1 μL of DMSO.
2. The cells in culture flask were collected and the cell density was diluted to 250,000 cells/mL.
3. 200 μL (50,000 cells/well) of cell suspension was added into prepared compound plate and the final concentration of DMSO in each well was 0.5%.
4. The culture plates containing cells and the compounds were incubated in CO2 incubator for 24 h at 37° C., 5% CO2.
5. After 24 h incubation, 20 μL of supernatant was removed from each well to a 96-well transparent assay plate. To each well of the assay plate was added 180 μL of Quanti-Blue reagent and the plate was incubated in an incubator at 37° C., 5% CO2 for 1 h.
6. After 1 h, the content of alkaline phosphatase in 20 μL of supernatant was determined using Microplate Reader OD650.
7. EC50 of each compound was obtained with Prism software.
Sequence of Toll-like receptor 7 (Q9NYK1 27-1049): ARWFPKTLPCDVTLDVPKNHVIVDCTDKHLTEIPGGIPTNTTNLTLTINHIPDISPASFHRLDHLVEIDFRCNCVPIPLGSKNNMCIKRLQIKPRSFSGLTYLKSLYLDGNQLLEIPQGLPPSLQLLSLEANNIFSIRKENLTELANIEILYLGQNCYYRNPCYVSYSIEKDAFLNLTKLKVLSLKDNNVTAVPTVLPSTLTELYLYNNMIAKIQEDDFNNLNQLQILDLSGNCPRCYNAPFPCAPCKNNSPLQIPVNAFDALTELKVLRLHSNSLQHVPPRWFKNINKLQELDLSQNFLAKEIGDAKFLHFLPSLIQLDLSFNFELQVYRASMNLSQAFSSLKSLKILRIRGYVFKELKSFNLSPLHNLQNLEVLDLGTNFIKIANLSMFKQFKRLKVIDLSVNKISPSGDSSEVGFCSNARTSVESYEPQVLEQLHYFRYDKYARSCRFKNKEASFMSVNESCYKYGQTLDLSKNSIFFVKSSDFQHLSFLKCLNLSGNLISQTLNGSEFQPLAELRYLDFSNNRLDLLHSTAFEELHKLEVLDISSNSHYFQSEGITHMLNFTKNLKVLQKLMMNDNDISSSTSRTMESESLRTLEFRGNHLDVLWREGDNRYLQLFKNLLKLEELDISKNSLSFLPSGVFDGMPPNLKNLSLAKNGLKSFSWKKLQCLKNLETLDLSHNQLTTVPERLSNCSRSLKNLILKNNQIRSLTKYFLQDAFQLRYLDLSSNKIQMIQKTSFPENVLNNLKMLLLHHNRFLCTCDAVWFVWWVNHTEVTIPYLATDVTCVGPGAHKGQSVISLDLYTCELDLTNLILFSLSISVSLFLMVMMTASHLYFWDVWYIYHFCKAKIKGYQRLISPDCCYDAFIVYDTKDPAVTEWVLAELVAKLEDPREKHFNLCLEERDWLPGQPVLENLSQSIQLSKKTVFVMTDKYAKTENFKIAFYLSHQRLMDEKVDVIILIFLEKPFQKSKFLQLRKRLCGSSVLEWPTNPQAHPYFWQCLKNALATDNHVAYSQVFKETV
Turning to `CCCCOc1nc(N)c2[nH]cc(Cc3cccc(CN4CCN(C)CC4)c3)c2n1` [Example 1, 2-butoxy-7-(3-((4-methylpiperazine-1-yl)methyl)benzyl)-5H-pyrrolo[3,2-d]pyrimidine-4-amine], the EC50 (usually the concentration giving half of the maximal effect) was 1 to 50 µM.

Regarding `CCCCOc1nc(N)c2[nH]cc(Cc3cccc(CN4CCOCC4)c3)c2n1` [Example 2, 2-butoxy-7-(3-(morpholinomethyl)benzyl)-5H-pyrrolo[3,2-d]pyrimidine-4-amine], the 50% effective concentration (EC50) is 1 to 50 µM.

With `CCCCOc1nc(N)c2[nH]cc(Cc3cccc(CN)c3)c2n1` [Example 3, 7-(3-(aminomethyl)benzyl)-2-butoxy-5H-pyrrolo[3,2-d]pyrimidine-4-amine], the EC50 lay within 1 to 50 µM. As for `CCCCOc1nc(N)c2[nH]cc(Cc3ccc(CN4CCC(F)(F)C4)cc3)c2n1` [Example 5], the concentration for a half-maximal effect (EC50) fell in the range of 1 to 50 µM. As to `CCCCOc1nc(N)c2[nH]cc(Cc3ccc(CN4CCC(F)C4)cc3)c2n1` (centres unmarked) [Example 6, 2-butoxy-7-(4-((3-fluoropyrrolidine-1-yl)methyl)benzyl)-5H-pyrrolo[3,2-d]pyrimidine-4-amine], the concentration for a half-maximal effect (EC50) lay in the range of 0.1 to 1 µM. Next, `CCCCOc1nc(N)c2[nH]cc(Cc3ccc(CN4CCC(O)C4)cc3)c2n1` (centres unmarked) [Example 7, 1-(4-((4-amino-2-butoxy-5H-pyrrolo[3,2-d]pyrimidine-7-1)methyl)benzyl)pyrrolidine-3-ol]: 0.1 to 1 µM; `CCCCOc1nc(N)c2[nH]cc(Cc3ccc(CN4CCCCC4)cc3)c2n1` [Example 8, 2-butoxy-7-(4-(piperidine-1-ylmethyl)benzyl)-5H-pyrrolo[3,2-d]pyrimidine-4-amine]: 0.1 to 1 µM; `CCCCOc1nc(N)c2[nH]cc(Cc3ccc(CN4CCOCC4)cc3)c2n1` [Example 9, 2-butoxy-7-(4-(morpholinomethyl)benzyl)-5H-pyrrolo[3,2-d]pyrimidine-4-amine]: 1 to 50 µM. As for `CCCCOc1nc(N)c2[nH]cc(Cc3ccc(CN4CCN(C)CC4)cc3)c2n1` [Example 10, 2-butoxy-7-(4-((4-methylpiperazine-1-yl)methyl)benzyl)-5H-pyrrolo[3,2-d]pyrimidine-4-amine], the EC50 was in the range of 1 to 50 µM. The figure for `CCCCOc1nc(N)c2[nH]cc(Cc3ccc(CN(C)C)cc3)c2n1` [Example 11, 2-butoxy-7-(4-((dimethylamino)methyl)benzyl)-5H-pyrrolo[3,2-d]pyrimidine-4-amine] is 0.1 to 1 µM; for `CCCCOc1nc(N)c2[nH]cc(Cc3ccc(CN(CC)CC)cc3)c2n1` [Example 12, 2-butoxy-7-(4-((diethylamino)methyl)benzyl)-5H-pyrrolo[3,2-d]pyrimidine-4-amine] it is 0.1 to 1 µM. The figure for `CCCCOc1nc(N)c2[nH]cc(Cc3ccc(CN(CCC)CCC)cc3)c2n1` [Example 13, 2-butoxy-7-(4-((dipropylamino)methyl)benzyl)-5H-pyrrolo[3,2-d]pyrimidine-4-amine] is 0.1 to 1 µM. In the case of `CCCCOc1nc(N)c2[nH]cc(Cc3ccc(CN4CCC4)cc3)c2n1` [Example 14, 7-(4-(azetidin-1-ylmethyl)benzyl)-2-butoxy-5H-pyrrolo[3,2-d]pyrimidine-4-amine], the EC50 is 0.1 to 1 µM. Next, `CCCCOc1nc(N)c2[nH]cc(Cc3ccc(CN4CC(OC)C4)cc3)c2n1` [Example 15, 2-butoxy-7-(4-((3-methoxylazetidin-1-yl)methyl)benzyl)-5H-pyrrolo[3,2-d]pyrimidine-4-amine]: 0.1 to 1 µM. Next, `CCCCOc1nc(N)c2[nH]cc(Cc3ccc(CN4CCCN(C)CC4)cc3)c2n1` [Example 16, 2-butoxy-7-(4-((4-methyl-1,4-diazepan-1-yl)methyl)benzyl)-5H-pyrrolo[3,2-d]pyrimidine-4-amine]: 0.1 to 1 µM; `CCCCOc1nc(N)c2[nH]cc(Cc3ccc(CN4CC(C)OC(C)C4)cc3)c2n1` (centres unmarked) [Example 17, 2-butoxy-7-(4-((2,6-dimethylmorpholinyl)methyl)benzyl)-5H-pyrrolo[3,2-d]pyrimidine-4-amine]: 0.1 to 1 µM; `CCCCOc1nc(N)c2[nH]cc(Cc3ccc(CN4C[C@@H]5C[C@H]4CO5)cc3)c2n1` [Example 18, 7-(4-((1 S,4S)-2-oxa-5-azabicyclo[2.2.1]heptane-5-ylmethyl)benzyl)-2-butoxy-5H-pyrrolo[3,2-d]pyrimidine-4-amine]: 0.1 to 1 µM. Next, `CCCCOc1nc(N)c2[nH]cc(Cc3ccc(CN4CCC(OC)CC4)cc3)c2n1` [Example 19, 2-butoxy-7-(4-((4-methoxylpiperidine-1-yl)methyl)benzyl)-5H-pyrrolo[3,2-d]pyrimidine-4-amine]: 0.1 to 1 µM; `CCCCOc1nc(N)c2[nH]cc(Cc3ccc(CN4CCN(C(C)C)CC4)cc3)c2n1` [Example 20, 2-butoxy-7-(4-((4-isopropylpiperazine-1-yl)methyl)benzyl)-5H-pyrrolo[3,2-d]pyrimidine-4-amine]: 0.1 to 1 µM; `CCCCOc1nc(N)c2[nH]cc(Cc3cccc(CCN4CCCC4)c3)c2n1` [Example 23, 2-butoxy-7-(3-(2-(pyrrolidine-1-yl)ethyl)benzyl)-5H-pyrrolo[3,2-d]pyrimidine-4-amine]: 1 to 50 µM. `CCCCOc1nc(N)c2[nH]cc(Cc3ccc(C(C)N4CCCC4)cc3)c2n1` (centres unmarked) [Example 24, 2-butoxy-7-(4-(1-(pyrrolidine-1-yl)ethyl)benzyl)-5H-pyrrolo[3,2-d]pyrimidine-4-amine]: the EC50 was in the range of 0.1 to 1 µM.

As for `CCCCOc1nc(N)c2[nH]cc(Cc3ccc(C4CCN(C)CC4)cc3)c2n1` [Example 25, 2-butoxy-7-(4-(1-methylpiperidine-4-yl)benzyl)-5H-pyrrolo[3,2-d]pyrimidine-4-amine], the EC50 was in the range of 0.001 to 0.1 µM. The figure for `CCCCOc1nc(N)c2[nH]cc(Cc3ccc(C4CCCN4C)cc3)c2n1` (centres unmarked) [Example 26, 2-butoxy-7-(4-(1-methylpyrrolidine-2-yl)benzyl)-5H-pyrrolo[3,2-d]pyrimidine-4-amine] is 0.1 to 1 µM; for `CCCCOc1nc(N)c2[nH]cc(Cc3ccc(N4CCN(C)CC4=O)cc3)c2n1` [Example 27, 1-(4-((4-amino-2-butoxy-5H-pyrrolo[3,2-d]pyrimidine-7-yl)methyl)phenyl)-4-methylpiperazine-2-one] it is 0.1 to 1 µM; for `CCCCOc1nc(N)c2[nH]cc(Cc3ccc4c(c3)CCNC4)c2n1` [Example 32, 2-butoxy-7-((1,2,3,4-tetrahydroisoquinoline-6-yl)methyl)-5H-pyrrolo[3,2-d]pyrimidine-4-amine] it is 0.1 to 1 µM. Next, `CCCCOc1nc(N)c2[nH]cc(Cc3ccc4c(c3)CCN(C)C4)c2n1` [Example 33, 2-butoxy-7-((2-methyl-1,2,3,4-tetrahydroisoquinoline-6-yl)methyl)-5H-pyrrolo[3,2-d]pyrimidine-4-amine]: 0.1 to 1 µM. The figure for `CCCCOc1nc(N)c2[nH]cc(Cc3ccc4c(c3)CCN(CC)C4)c2n1` [Example 34, 2-butoxy-7-((2-ethyl-1,2,3,4-tetrahydroisoquinoline-6-yl)methyl)-5H-pyrrolo[3,2-d]pyrimidine-4-amine] is 0.1 to 1 µM; for `COCCOc1nc(N)c2[nH]cc(Cc3ccccc3)c2n1` [Example 35, 7-benzyl-2-(2-methoxylethoxyl)-5H-pyrrolo[3,2-d]pyrimidine-4-amine] it is 1 to 50 µM. For `COCCOc1nc(N)c2[nH]cc(Cc3ccc(C)nc3)c2n1` [Example 36, 2-(2-methoxylethoxyl)-7-((6-methylpyridine-3-yl)methyl)-5H-pyrrolo[3,2-d]pyrimidine-4-amine], the EC50 fell in the range of 1 to 50 µM. `COCCOc1nc(N)c2[nH]cc(Cc3ccc(Cl)cn3)c2n1` [Example 37, 7-((5-chloropyridine-2-yl)methyl)-2-(2-methoxylethoxyl)-5H-pyrrolo[3,2-d]pyrimidine-4-amine]: the EC50 was in the range of 1 to 50 µM. As for `COCCOc1nc(N)c2[nH]cc(Cc3ccc(CN4CCCC4)nc3)c2n1` [Example 38, 2-(2-methoxylethoxyl-)-7-((6-(pyrrolidine-1-ylmethyl)pyridine-3-yl)methyl)-5H-pyrrolo[3,2-d]pyrimidine-4-amine], the EC50 lay in the range of 0.1 to 1 µM.

Consider `COCCOc1nc(N)c2[nH]cc(Cc3ccc(N4CCN(C)CC4=O)cc3)c2n1` [Example 39, 1-(4-((4-amino-2-(2-methoxylethoxyl)-5H-pyrrolo[3,2-d]pyrimidine-7-yl)methyl)phenyl)-4-methylpiperazine-2-one], for which the EC50 lay within 0.1 to 1 µM. For `CCCCOc1nc(N)c2[nH]cc(Cc3ccc(CN4CCCC4)cn3)c2n1` [Example 40, 2-butoxy-7-((5-(pyrrolidine-1-ylmethyl)pyridine-2-yl)methyl)-5H-pyrrolo[3,2-d]pyrimidine-4-amine], the EC50 lay within 0.1 to 1 µM.

Take `CCCCOc1nc(N)c2[nH]c(C#N)c(Cc3ccc(CN4CCCC4)nc3)c2n1` [Example 41, 4-amino-2-butoxy-7-((6-(pyrrolidine-1-ylmethyl)pyridine-3-yl)methyl)-5H-pyrrolo[3,2-d]pyrimidine-6-carbonitrile]: the 50% effective concentration (EC50) lay within 0.001 to 0.1 µM. The figure for `CCCCOc1nc(N)c2[nH]c(C#N)c(Cc3ccc(CN4CCOCC4)cc3)c2n1` [Example 43, 4-amino-2-butoxy-7-(4-(morpholinomethyl)benzyl)-5H-pyrrolo[3,2-d]pyrimidine-6-carbonitrile] is 0.001 to 0.1 µM.
